Where “and” joins values, the source holds several entries; their conditions need not be identical. Identical values can stand only once.
Legend:
human hepatocytes = test: Hepatocyte metabolic stability (clearance) assay, human hepatocytes; details: for Negative Control Data, No cells (NC), Ln Concentration / Negative Control Data, Heat Treated (HT), Ln Concentration / Ln Concentration / Linear Regression Best-Fit Slope (ln concentration vs time): 1000 nM; for Negative Control Data, No cells (NC), Ln Concentration / Negative Control Data, Heat Treated (HT), Ln Concentration / Ln Concentration: Rep 1-3; for Clin vitro / Negative Control Data, Heat Treated (HT), Ln Concentration / Ln Concentration / Linear Regression Best-Fit Slope (ln concentration vs time): human hepatocytes; for Clin vitro: 1 µM; for Linear Regression Best-Fit Slope (ln concentration vs time): time in min
Description: Information on the chemicals and materials used in the hepatocyte metabolic work can be found in Supplementary Text S9 and Table S3. In vitro evaluations of hepatocyte metabolic stability were performed in human and rat hepatocytes, as previously described. Briefly, pooled, cryopreserved hepatocyte suspensions were thawed, assessed for viability, and then diluted in William’s medium E containing dexamethasone and cell maintenance cocktail B to achieve a cell density of 50,000 cells/100 µL. The assay was started by adding hepatocyte suspensions to wells of 96-well polypropylene plates containing an equal volume of media with 2 µM of analyte (final assay concentration: 1 µM). Plates were placed in a 37 °C cell culture incubator (5% CO2) on a shaker set to 200 rpm. Time points assessed were T0, T15, T30, T60, T120, and T240 min. At each time point, the plates were removed from the shaker and the incubates were crashed with an equal volume of ice-cold ACN containing 1.2% FA and 16 ng/mL of ^13C3 -HFPO-DA. After chilling and centrifugation at 4122× g, the supernatants were transferred to new collection plates and stored at −70 °C until analysis for the parent compound on the Waters instrumentation described below. Immediately prior to analysis, samples were thawed, vortexed, and centrifuged at 4200× g, and then diluted 1:4 in 95:5 H2O/ACN with 2.5 mM of ammonium acetate. Negative controls, including no cell controls and metabolically inactivated hepatocytes, were run concurrently to assess the chemical stability over the time course.
Intrinsic clearance (Clint; hepatic clearance) calculations are detailed in Supplementary Text S9 [57].
Targeted, quantitative analysis of in vitro hepatocyte metabolic stability and plasma protein binding assay samples was conducted on a Waters Xevo-TQS micro mass spectrometer (Waters, Milford, MA, USA) ultra-high-performance liquid chromatography tandem mass spectrometry system (UPLC-MS/MS), modified with a PFAS analysis kit. Samples were analyzed in negative ion mode with UniSpray ionization. A CORTECS T3 column (Waters CORTECS, 3 × 100 mm, particle size 2.7 µm) was used for chromatographic separation with a flow rate of 0.6 mL/min and a temperature of 55 °C. Gradient elution was used with eluent A (95:5 H2O/ACN) and eluent B (95:5 ACN/H2O) with 2.5 mM of ammonium acetate. The gradient is available in Table S11. Additional details for MS parameters are found in Table S12 and monitored transitions are found in Table S13.
Table S2: Data processing parameters used with Sciex MarkerView 1.3.1.
Support ing Text S9: Hepatocyte Metabolic Stability Assay Materials, Chemicals, and Calculations
Pooled human and rat cryopreserved primary hepatocyte suspensions were both obtained from
BioIVT, a US Food and Drug Administration-licensed and inspected donor center, and produced using
non-transplantable tissue.
William’s E media, dexamet hasone (98% pure), and cell maintenance cocktail B were obtained from
Thermo Fisher Scientific (Waltham, MA, USA), the OptiThaw hepatocyte kit from Sekisui/Xenotech
(Tokyo, Japan), and the trypan blue s (Sekisui/ Xenotech, Tokyo, Japan) and the trypan blue solution from […]

[1] = In vitro-in vivo extrapolation (IVIVE) to estimate Css, human; details: for Css / Css (steady-state concentration, plasma): IVIVE, BW 70 kg; for Css: ID 0.042 mg/kg/hr; for Css (steady-state concentration, plasma): intake dosage 1 mg/kg/day; for fraction unbound: blood, fub=fup/(1-hemocrit ref value), hematocrit 0.45; for Clint: scaled (HPGL 110, Vl 1596 g)
Description: (§1) Fraction unbound (fu) in plasma (fup) and percent stability calculations are detailed in Supplementary Text S10. Hepatic clearance, the fu in blood (fub) (fu in plasma adjusted for blood:plasma partitioning), and renal clearance were used to derive the steady-state concentration (Css) of each compound that will be used for in vitro–in vivo extrapolation (IVIVE). Renal clearance was calculated using the glomerular filtration rate (a species-dependent constant) and the fub. The Css calculation is detailed in Supplementary Text S11.
(§2) Linear regression analysis in conjunction […]
(§3) cells in the Clint equation. […]
(§4) concentration by the T300 min concentration (Equation E). Chemical stability in plasma was assessed […]
(§5) (F) Percent Stability = T300minutesT60minutes∗100 […]
(§6) blood (fub) of the parent compound. The Clhepatic calculation is shown in the second part of the denominator of Equation G; it is the product of the species dependent liver blood flow constant, the fub of the parent compound, and the experimentally derived intrins ic clearance (s hown in Equation D) divided by the sum these three values. All values used in Equation G are for first order conditions of metabolism in the liver. All calculations, scalars, and species dependent values used to conduct the Css calculation to facilitate in vitro-in vivo extrapolation (IVIVE) are provided Table S19 within the Excel worksheet, the tab […]
(§7) Based on the principle of reverse dosimetry, the Css values derived from IVIVE will be u sed as conversion factors to generate AEDs according to Equation H. In this equation, the AED is linearly related to the in vitro concentration and inversely related to the Css. It is only valid for first-order metabolism that is expected at ambient exposure levels.
(§8) (H) AED ൮ mgkg൲ = in vitro concentration (µM )

[2] = In vitro-in vivo extrapolation (IVIVE) to estimate Css, rat; details: for Css / Css (steady-state concentration, plasma): IVIVE, BW 0.25 kg; for Css: ID 0.042 mg/kg/hr; for Css (steady-state concentration, plasma): intake dosage 1 mg/kg/day; for fraction unbound at 300 min: Sprague Dawley, blood, fub=fup/(1-hemocrit ref value), hematocrit 0.439; for Clint: scaled (HPGL 117, Vl 9.5 g)
Description: as §1, §2, §3, §4, §5, §6, §7, §8

SMILES | Negative Control Data, No cells (NC), Ln Concentration (human hepatocytes; 15 min) | Negative Control Data, No cells (NC), Ln Concentration (human hepatocytes; 240 min) | Clin vitro (human hepatocytes) | Negative Control Data, Heat Treated (HT), Ln Concentration (human hepatocytes; 15 min) | Negative Control Data, Heat Treated (HT), Ln Concentration (human hepatocytes; 240 min) | Ln Concentration (human hepatocytes; time 0 min) | Ln Concentration (human hepatocytes; time 15 min) | Ln Concentration (human hepatocytes; time 30 min) | Ln Concentration (human hepatocytes; time 60 min) | Ln Concentration (human hepatocytes; time 120 min) | Ln Concentration (human hepatocytes; time 240 min) | Linear Regression Best-Fit Slope (ln concentration vs time) (human hepatocytes) | Clhep (hepatic clearance) [1] | Css [1] | Css (steady-state concentration, plasma) [1] | fraction unbound [1] | Clint [1] | Clhep (hepatic clearance) [2] | Css [2] | Css (steady-state concentration, plasma) [2] | other results
O=C(O)C(F)(OC(F)(F)C(F)(OC(F)(F)C(F)(OC(F)(F)C(F)(F)C(F)(F)F)C(F)(F)F)C(F)(F)F)C(F)(F)F (stereo not drawn) [HFPO-TeA, perfluoro-(2,5,8-trimethyl-3,6,9-trioxadodecanoic) acid] | 3.2431 and 3.8547 and 4.8392 | 4.3983 and 4.1513 and 4.1952 | 0 µL/min/106 cells | 3.2431 and 3.8547 and 4.8392 | 3.9071 and 4.4271 and 4.0870 | 4.4318 and 4.5113 and 4.4280 | 4.5753 and 4.4697 and 3.8582 | 3.6875 and 3.5788 and 3.6553 | 3.0465 and 3.5032 and 3.8121 | 4.2197 and 4.3067 and 4.1488 | 3.9567 and 3.8156 and 4.0422 | 0.001224 | 0 L/h | 19420 ng/mL | 29.34 µM and 29.3351 µM | 0.0226 | 0 µL/min | 0 L/h | 12550 ng/mL | 19 µM and 18.96 µM and 18.9581 µM | fraction unbound at 300 min [2]: 0.0105; Clint [2]: 0 µL/min
O=C(O)C(F)(OC(F)(F)C(F)(F)C(F)(F)F)C(F)(F)F (stereo not drawn) [HFPO-DA, perfluoro-2-methyl-3-oxahexanoic acid] | 4.4067 and 4.8800 and 5.2467 | 4.0348 and 4.0907 and 4.1657 | 0 µL/min/106 cells | 4.4067 and 4.8800 and 5.2467 | 4.6325 and 4.7203 and 4.8737 | 4.0945 and 4.2370 and 4.1735 | 4.1372 and 3.3218 and 3.8504 | 4.2468 and 4.1368 and 4.2711 | 4.1233 and 4.2750 and 4.2651 | 4.3345 and 4.3751 and 4.3328 | 4.9658 and 4.7177 and 4.8428 | 0.0006364 | 0 L/h | 24670 ng/mL | 74.75 µM and 74.7454 µM | 0.0178 | 0 µL/min | 0 L/h | 2400 ng/mL | 7.27 µM and 7.2674 µM | fraction unbound at 300 min [2]: 0.0547; Clint [2]: 0 µL/min
O=C(O)C(F)(OC(F)(F)C(F)(OC(F)(F)C(F)(F)C(F)(F)F)C(F)(F)F)C(F)(F)F (stereo not drawn) [HFPO-TA, perfluoro-(2,5-dimethyl-3,6-dioxanonanoic) acid] | 4.3597 and 5.0085 and 5.1884 | 3.9371 and 3.9316 and 3.8367 | 0 µL/min/106 cells | 4.3597 and 5.0085 and 5.1884 | 4.9004 and 4.9391 and 4.9107 | 3.4977 and 3.5184 and 3.3762 | 4.0516 and 4.0675 and 3.8232 | 3.7647 and 3.6457 and 3.2925 | 4.1190 and 4.0115 and 3.2249 | 4.2452 and 3.9281 and 3.6055 | 4.5149 and 4.7648 and 4.7557 | 0.000858 | 0 L/h | 186410 ng/mL | 375.76 µM and 375.7648 µM | 0.0024 | 0 µL/min | 0 L/h | 40600 ng/mL | 81.84 µM and 81.8399 µM | fraction unbound at 300 min [2]: 0.0032; Clint [2]: 0 µL/min

— PMC10747602, “Dose Response, Dosimetric, and Metabolic Evaluations of Replacement PFAS Perfluoro-(2,5,8-trimethyl-3,6,9-trioxadodecanoic) Acid (HFPO-TeA)” (Toxics, 2023)
